{"source": "patent US11395857B2", "about": "“Radiolabeled melanocortin 1 receptor-specific alpha-melanocyte-stimulating hormone analogues for imaging or therapy” (PROVINCIAL HEALTH SERVICES AUTHORITY, priority 2018, dated 2022)", "key": {"[1]": {"test_system": "B16F10 cells", "assay": "In vitro competition binding assay on B16-F10 cells vs 125I-[Nle4,D-Phe7]-alpha-MSH", "design": "species or system Mus musculus", "conditions": "natGa-coupled peptides", "method": "The B16-F10 melanoma cell line (Mus musculus) used in the tumor model was obtained commercially from ATTC (CRL-6475). Cells were cultured in Dulbecco's Modified Eagle's Medium (DMEM, StemCell Technologies) supplemented by 10% FBS, 100 U/mL penicillin and 100 μg/mL streptomycin at 37° C. in a humidified incubator containing 5% CO2. Cells grown to roughly 90% confluence were washed with sterile phosphate-buffered saline (lx PBS, pH 7.4), followed by trypsinization. For tumour implantation, C57BL/6J mice were anesthetized by inhalation with 2% isoflurane in 2.0 L/min of oxygen, 2×10^6 B16-F10 cells were inoculated subcutaneously on right dorsal flank. Mice were imaged or used in biodistribution studies once the tumour reached 6-8 mm in diameter.\nIn vitro competitive binding assays were performed using B16-F10 cells and the cell culture method described in Example 1. 500,000 cells/well were seeded onto a 24 well poly-D-lysine coated plate (Corning) overnight. Growth media was removed, and reaction buffer containing 4.8 mg/mL HEPES, […] penicillin/[…] and 2 mg/mL BSA was added, and allowed to incubate with cells at 37° C. for at least an hour. Peptide of interest and ^125I-[Nle^4, D-Phe^7]-alpha-MSH (Perkin Elmer) were added to each well. The binding of ^125I-[Nle^4, D-Phe^7]-alpha-MSH was competed by non-radioactive gallium coupled CCZ01103, CCZ01104, CCZ01105, CCZ01106 or CCZ01114 at increasing concentrations from 0.5 pmol/mL to […]. The reaction mixture was incubated at 25° C. with moderate shaking for 1 h. After the incubation, the reaction mixture was removed, and cells were washed with ice-cold PBS twice. 0.25% Trypsin solution was used to harvest the cells and radioactivity was measured using a Wallac WIZARD2 gamma counter (Perkin Elmer)."}, "[2]": {"test_system": "SK-MEL-1 human melanoma", "assay": "SPECT/CT imaging of mice bearing SK-MEL-1 human melanoma", "assay_type": "in vivo, NRG mice", "conditions": "24 h p.i.", "method": "SPECT/CT imaging experiments were conducted using the same conditions as described in Example 3. […] (FIG. 6)."}, "[3]": {"assay": "In vivo stability in mouse urine at 1 h p.i. (radio-HPLC)", "design": "species or system C57BL/6J mice", "method": "All animal experiments were conducted in according to the guidelines established by Canadian Council on Animal Care and approved by Animal Ethics Committee of the University of British Columbia. Mice were housed under pathogen-free conditions and kept on twelve hours light and twelve hours dark cycle in the Animal Research Centre, BC Cancer Research Centre, Vancouver, Canada. C57BL/6J mice were anesthetized by inhalation with 2% isoflurane in 2.0 L/min of oxygen, and approximately 4-6 MBq of [^68Ga]Ga-CCZ01099 or [^68Ga]Ga-CCZ01048 was injected intravenously. The mice were allowed to recover and roam freely in their cages. At 1 h post-injection (p.i.), the mice were euthanized by CO2 inhalation and their urine was collected and analyzed on HPLC for metabolite using the conditions described above. In vivo urine stability of [^68Ga]Ga-CCZ01099 and [^68Ga]Ga-CCZ01048 were 34.0±10.4% and ≥98.0% (n≥3), respectively.\nThe in vivo stability tests in mouse urine were performed as described in Example 1. […] With systematic reduction in the number of N-methylations for the αMSH analogues, a decrease in in vivo stability was observed."}, "[4]": {"test_system": "B16-F10 tumours", "conditions": "Zhang et al., 2017 Theranostics; cited from earlier work"}}, "data": [{"smiles": "CCCC[C@H](NC(=O)CN1CCC(NC(=O)CN2CCN(CC(=O)O)CCN(CC(=O)O)CCN(CC(=O)O)CC2)CC1)C(=O)N[C@H]1CC(=O)NCCCC[C@@H](C(N)=O)NC(=O)[C@H](Cc2c[nH]c3ccccc23)NC(=O)[C@H](CCCNC(=N)N)N(C)C(=O)[C@@H](Cc2ccccc2)NC(=O)[C@H](Cc2c[nH]cn2)NC1=O", "note": "[CCZ01114, DOTA-Pip-Nle-cyclo[Asp-His-D-Phe-(N-Me-Arg)-Trp-Lys]-NH2]", "values": [{"measurement": "Binding affinity (comparison among the five analogues)", "setting": "[1]", "result": "highest binding affinity"}]}, {"smiles": "CCCC[C@H](NC(=O)CN1CCC(NC(=O)[C@H](CCCCNC(=O)CN2CCN(CC(=O)O)CCN(CC(=O)O)CCN(CC(=O)O)CC2)NC(=O)CNC(=O)CCCc2ccc(I)cc2)CC1)C(=O)N[C@H]1CC(=O)NCCCC[C@@H](C(N)=O)N(C)C(=O)[C@H](Cc2c[nH]c3ccccc23)NC(=O)[C@H](CCCNC(=N)N)N(C)C(=O)[C@@H](Cc2ccccc2)NC(=O)[C@H](Cc2c[nH]cn2)NC1=O", "note": "[CCZ01148]", "values": [{"measurement": "Tumour uptake / retention in SPECT images", "setting": "[2]", "result": "showed improved the tumour retention"}]}, {"smiles": "CCCC[C@H](NC(=O)CN1CCC(NC(=O)[C@H](CCCCNC(=O)CN2CCN(CC(=O)O)CCN(CC(=O)O)CCN(CC(=O)O)CC2)NC(=O)CNC(=O)CCCc2ccc(C)cc2)CC1)C(=O)N[C@H]1CC(=O)NCCCC[C@@H](C(N)=O)N(C)C(=O)[C@H](Cc2c[nH]c3ccccc23)NC(=O)[C@H](CCCNC(=N)N)N(C)C(=O)[C@@H](Cc2ccccc2)NC(=O)[C@H](Cc2cnc[nH]2)NC1=O", "note": "[CCZ01158]", "values": [{"measurement": "Blood uptake in SPECT images", "setting": "[2]", "result": "Lower blood uptake was observed"}, {"measurement": "Tumour uptake / retention in SPECT images", "setting": "[2]", "result": "showed improved the tumour retention"}]}, {"smiles": "CCCC[C@H](NC(=O)CN1CCC(NC(=O)CN2CCN(CC(=O)O)CCN(CC(=O)O)CCN(CC(=O)O)CC2)CC1)C(=O)N[C@H]1CC(=O)NCCCC[C@@H](C(N)=O)N(C)C(=O)[C@H](Cc2c[nH]c3ccccc23)NC(=O)[C@H](CCCNC(=N)N)N(C)C(=O)[C@@H](Cc2ccccc2)NC(=O)[C@H](Cc2c[nH]cn2)NC1=O", "note": "[CCZ01106, DOTA-Pip-Nle-cyclo[Asp-His-D-Phe-(N-Me-Arg)-Trp-(N-Me-Lys)]—NH2]", "values": [{"measurement": "Binding affinity (comparison among the five analogues)", "setting": "[1]", "result": "highest binding affinity"}, {"measurement": "Ki", "setting": "[1]; n ≥ 3, read-out: Inhibition constants (Ki) on B16F10 cells", "result": "1.5 ± 0.1", "unit": "nM"}, {"measurement": "In vivo urine stability, intact tracer", "setting": "[3]", "result": "82.5±1.8", "unit": "%"}]}, {"smiles": "CCCC[C@H](NC(=O)CN1CCC(NC(=O)CN2CCN(CC(=O)O)CCN(CC(=O)O)CCN(CC(=O)O)CC2)CC1)C(=O)N[C@H]1CC(=O)NCCCC[C@@H](C(N)=O)NC(=O)[C@H](Cc2c[nH]c3ccccc23)NC(=O)[C@H](CCCNC(=N)N)NC(=O)[C@@H](Cc2ccccc2)NC(=O)[C@H](Cc2c[nH]cn2)NC1=O", "note": "[[^68Ga]Ga-CCZ01048, metal not drawn, reference compound]", "values": [{"measurement": "In vivo urine stability, intact tracer", "setting": "[3]", "result": "≥ 98.0", "unit": "%"}, {"measurement": "Thyroid uptake on PET images", "setting": "[4]", "result": "thyroid uptake was clearly observed"}]}]}
